{
  "source": "patent US8937091B2",
  "about": "(Japan Science and Technology Agency, priority 2009, dated 2015)",
  "key": {"[1]": {"target": "TGase (Cavia porcellus, UniProt P08587)", "format": "biochemical", "conditions": "for TG level: level with DMSO control designated as 100", "experimental": "An enzyme reaction solution (0.1 ml) (100 mM HEPES-NaOH, pH 7.5, 1 mM CaCl2, 20 μM monodansyl cadaverine, 0.05 mg/ml N,N-dimethylcasein, 5 μg/ml TGase) was introduced into wells of a 96-well plate (Nunc, 96 Well Black Plate with Clear Bottom). A test compound was added in concentrations of 0.3, 1.0, 3.0, 10, and 30 μM. The solution and the compound were sufficiently mixed while preventing foaming. The plate was set in the fluorescence drug screening system FDSS 3000 (Hamamatsu Photonics K.K.). TGase-inhibiting activity of the compound was calculated by assaying changes in fluorescence wavelength (at 340 nm) per unit time. […] The assay level at which TGase activity decreased by half in the presence of the test compound was designated as TG 50.\nHereafter, the numerals in parentheses written after the TG level, the SOCE level, and the IICR level correspond to the test compound concentrations. The number following the name of each title compound used in the Examples below represents a compound ID number designated arbitrarily by the present inventors."}, "[2]": {"test_system": "IICR (IP3 induced calcium release) in CHO cells", "experiment": "Assay of IICR (IP3 induced calcium release)-inhibiting action", "format": "cell-based, Chinese hamster", "procedure,_shortened": "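CHO cell medium replaced with calcium-containing BSS; compound added 1 min later, then 10 μM ATP after a further 2 min. Percent inhibition of the ATP-evoked rise in intracellular calcium determined at each compound concentration.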"}},
  "note": "Where two headings read alike, the source gives them in different places.",
  "data": [
    {"compound": "2-(N-2-hydroxy-3-aminopropyl)aminoethyl-5-bromo-2-thienylketone [Example 8853]", "values": [
      {"measurement": "TG-activity-inhibiting action or protein-crosslinking-inhibiting action (in words)", "setting": "[1]", "value": "strongly"},
      {"measurement": "IICR-inhibiting activity compared with SOCE-inhibiting activity (in words)", "setting": "[2]", "value": "higher than SOCE-inhibiting activity"}
    ]},
    {"compound": "2-(N-t-butylbenzyl)aminoethyl-5-bromo-2-thiophenylketone [Example 8778]", "values": [
      {"measurement": "TG-activity-inhibiting action or protein-crosslinking-inhibiting action (in words)", "setting": "[1]", "value": "strongly"},
      {"measurement": "IICR-inhibiting activity compared with SOCE-inhibiting activity (in words)", "setting": "[2]", "value": "higher than SOCE-inhibiting activity"}
    ]},
    {"compound": "C=CC(=O)c1ccccc1", "note": "[Example 8184, acryloylbenzene]", "values": [
      {"measurement": "TG-activity-inhibiting action or protein-crosslinking-inhibiting action (in words)", "setting": "[1]", "value": "high"}
    ]},
    {"compound": "C=CC(=O)c1ccc(C)cc1", "note": "[Example 8185, 4-methyl-1-acryloylbenzene]", "values": [
      {"measurement": "TG-activity-inhibiting action or protein-crosslinking-inhibiting action (in words)", "setting": "[1]", "value": "high"}
    ]},
    {"compound": "C=CC(=O)c1ccc(F)cc1", "note": "[Example 8186, 4-fluoro-1-acryloylbenzene]", "values": [
      {"measurement": "TG-activity-inhibiting action or protein-crosslinking-inhibiting action (in words)", "setting": "[1]", "value": "high"}
    ]},
    {"compound": "C=CC(=O)c1cc2c(cc1Br)OCO2", "note": "[Example 8200, 2-bromo-4,5-dioxymethylene-1-acryloylbenzene]", "values": [
      {"measurement": "TG-activity-inhibiting action or protein-crosslinking-inhibiting action (in words)", "setting": "[1]", "value": "high"}
    ]},
    {"compound": "C=CC(=O)c1ccc2c(C)cccc2c1", "note": "[Example 8211, 1-methyl-6-acryloylnaphthalene]", "values": [
      {"measurement": "TG-activity-inhibiting action or protein-crosslinking-inhibiting action (in words)", "setting": "[1]", "value": "high"}
    ]},
    {"compound": "C=CC(=O)c1ccc2ccccc2c1", "note": "[Example 8213, 2-acryloylnaphthalene]", "values": [
      {"measurement": "TG-activity-inhibiting action or protein-crosslinking-inhibiting action (in words)", "setting": "[1]", "value": "high"}
    ]},
    {"compound": "C=CC(=O)c1ccc2c(F)cccc2c1", "note": "[Example 8257, 1-fluoro-6-acryloylnaphthalene]", "values": [
      {"measurement": "TG-activity-inhibiting action or protein-crosslinking-inhibiting action (in words)", "setting": "[1]", "value": "high"}
    ]},
    {"compound": "C=CC(=O)c1ccc(Br)cc1", "note": "[Example 8266, 1-acryloyl-4-bromobenzene]", "values": [
      {"measurement": "TG-activity-inhibiting action or protein-crosslinking-inhibiting action (in words)", "setting": "[1]", "value": "high"}
    ]},
    {"compound": "C=CC(=O)C(c1ccccc1)c1ccccc1", "note": "[Example 8269, Acryloyldiphenylmethane]", "values": [
      {"measurement": "TG-activity-inhibiting action or protein-crosslinking-inhibiting action (in words)", "setting": "[1]", "value": "high"}
    ]},
    {"compound": "CC(C)N(CCC(=O)c1ccc(Cc2ccccc2)cc1)Cc1ccccc1", "note": "[Example 8285, 2-(N-isopropylbenzyl)aminoethyl-4-benzylphenylketone]", "values": [
      {"measurement": "TG-activity-inhibiting action or protein-crosslinking-inhibiting action (in words)", "setting": "[1]", "value": "strongly"},
      {"measurement": "IICR-inhibiting activity compared with SOCE-inhibiting activity (in words)", "setting": "[2]", "value": "higher than SOCE-inhibiting activity"}
    ]},
    {"compound": "C=CC(=O)c1cccc2ccccc12", "note": "[Example 8293, 1-acryloylnaphthalene]", "values": [
      {"measurement": "TG-activity-inhibiting action or protein-crosslinking-inhibiting action (in words)", "setting": "[1]", "value": "high"}
    ]},
    {"compound": "CC(C)N(CCC(=O)c1ccccn1)Cc1ccccc1", "note": "[Example 8305, 2-(N-isopropylbenzyl)aminoethyl-2-pyridylketone]", "values": [
      {"measurement": "TG-activity-inhibiting action or protein-crosslinking-inhibiting action (in words)", "setting": "[1]", "value": "strongly"},
      {"measurement": "IICR-inhibiting activity compared with SOCE-inhibiting activity (in words)", "setting": "[2]", "value": "higher than SOCE-inhibiting activity"}
    ]},
    {"compound": "CC(C)N(CCC(=O)c1ccco1)Cc1ccccc1", "note": "[Example 8370, 2-(N-isopropylbenzyl)aminoethyl-2-furylketone]", "values": [
      {"measurement": "TG-activity-inhibiting action or protein-crosslinking-inhibiting action (in words)", "setting": "[1]", "value": "strongly"},
      {"measurement": "IICR-inhibiting activity compared with SOCE-inhibiting activity (in words)", "setting": "[2]", "value": "higher than SOCE-inhibiting activity"}
    ]},
    {"compound": "O=C(CCN(CCO)Cc1ccccc1)c1cnccn1", "note": "[Example 8397, 2-(N-benzylhydroxyethyl)aminoethyl-2-pyrazylketone]", "values": [
      {"measurement": "TG-activity-inhibiting action or protein-crosslinking-inhibiting action (in words)", "setting": "[1]", "value": "strongly"},
      {"measurement": "IICR-inhibiting activity compared with SOCE-inhibiting activity (in words)", "setting": "[2]", "value": "higher than SOCE-inhibiting activity"}
    ]},
    {"compound": "Cc1ccc(C(=O)CCN(CCO)Cc2ccccc2)o1", "note": "[Example 8404, 2-(N-benzylhydroxyethyl)aminoethyl-5-methyl-2-furylketone]", "values": [
      {"measurement": "TG-activity-inhibiting action or protein-crosslinking-inhibiting action (in words)", "setting": "[1]", "value": "strongly"},
      {"measurement": "IICR-inhibiting activity compared with SOCE-inhibiting activity (in words)", "setting": "[2]", "value": "higher than SOCE-inhibiting activity"}
    ]},
    {"compound": "Cc1ccc(C(=O)CCN(Cc2ccccc2)C(C)(C)C)o1", "note": "[Example 8405, 2-(N-benzyl-t-butyl)aminoethyl-5-methyl-2-furylketone]", "values": [
      {"measurement": "TG-activity-inhibiting action or protein-crosslinking-inhibiting action (in words)", "setting": "[1]", "value": "strongly"},
      {"measurement": "IICR-inhibiting activity compared with SOCE-inhibiting activity (in words)", "setting": "[2]", "value": "higher than SOCE-inhibiting activity"}
    ]},
    {"compound": "Methyl vinylketone [Example 57]", "values": [
      {"measurement": "TG level", "setting": "[1]; test compound 3 μmol", "value": 84},
      {"measurement": "TG level", "setting": "[1]; test compound 10 μmol", "value": 94},
      {"measurement": "TG level", "setting": "[1]; test compound 30 μmol", "value": 37}
    ]}
  ]
}
